# Laboratory results taken from patent publication US4906614A, “Method of treating posttraumatic nervous injuries with dipeptide derivatives” (Gruenenthal GmbH, priority 1985, dated 1990).
# What was measured:
# [1] = tested on: experimental spinal cord injury; settings: animal experiments; treatment during the first 24 hours following the trauma; cited from earlier work
# [2] = tested on: brain stem compression in cats; settings: cited from earlier work
# [3] = tested on: Cats After Traumatic Spinal Cord Injury; experiment: Neurologic recovery in cats after traumatic spinal cord injury (C-7 weight-drop); assay type: in vivo, cat; design: key to total functional score (forelimb + hindlimb scores): sum of forelimb + hindlimb scores, each 0 = no movement to 5 = normal; settings: for neurologic and motoric function compared with saline: after 6 weeks
# Procedure: Cats anesthetized with sodium pentobarbital were subjected under aseptic conditions to a laminectomy to expose the C-7 spinal segment. With the dura intact, the spinal cord was traumatized by dropping a 20 g weight a distance of 30 cm through a guide tube onto a 10 square-millimeter impact plate. Drugs were given intravenously as a bolus injection (0.5 ml) at 1 and 3 hours after injury. A group of 9 animals was treated with 0.2mg/kg of orotyl-L-histidyl-L-prolinamide dissolved in 0.5 ml of physiological saline. A second group of 7 animals was given 1 mg/kg L-pyro-2-aminoapidyl-L-nistidyl-thiazolidine-4-carboxamide (also dissolved in 0.5 ml of physiological saline), which compound is referred to hereinafter as "compound A" and which has been described in the literature as an active TRH-modification product and has also been compared with the aforementioned orotylL-histidyl-L-prolinamide (c.f. Metcalf in Thyrotropin Releasing Hormone, E. C. Griffiths et al., eds., Raven Press, New York, 1983, pp. 315-26). A control group of 11 animals was treated with 0.5 ml of physiological saline per animal.
# Neurologic function was evaluated weekly for six weeks by a neurologist who was unaware of the treatment group and assessed according to a six-point ordinal scale as described by Faden et al. in Neurology, Vol. 33, pp. 673-678 (1983). Forelimb and hindlimb function were scored separately as follows: 0 =absence of voluntary movement; 1 =spontaneous movement but inability to support weight; 2=ability to support weight but unable to walk; 3=ability to walk but with marked spasticity and/or ataxia; 4=ability to run but with mild spasticity or ataxia; and 5=normal motor function. Forelimb and hindlimb scores were then added together to obtain a total functional score.
structure (smiles),measurement,setting,value
"NC(=O)[C@@H]1CCCN1C(=O)[C@H](Cc1c[nH]cn1)NC(=O)[C@@H]1CCC(=O)N1 [TRH, L-pyroglutamyl-L-histidyl-L-prolinamide]",recovery of the motoric function after experimental spinal cord injury,[1],significantly improves recovery of the motoric function
same,effect on EEG alterations resulting from traumata of the brain,[2],dose-dependent positive effect
"NC(=O)C1CSCN1C(=O)[C@H](Cc1c[nH]cn1)NC(=O)[C@@H]1CCCC(=O)N1 (stereo partly drawn) [A, L-pyro-2-aminoapidyl-L-nistidyl-thiazolidine-4-carboxamide]",neurologic and motoric function compared with saline,[3]; 1 mg/kg i.v. at 1 and 3 hours after injury,did not differ significantly from those of saline
same,total functional score (forelimb + hindlimb scores),"[3]; week 1 after injury, 1 mg/kg i.v. bolus at 1 and 3 hours after injury, n = 7",4
same,total functional score (forelimb + hindlimb scores),"[3]; week 2 after injury, 1 mg/kg i.v. bolus at 1 and 3 hours after injury, n = 7",5
same,total functional score (forelimb + hindlimb scores),"[3]; week 3 after injury, 1 mg/kg i.v. bolus at 1 and 3 hours after injury, n = 7",5
same,total functional score (forelimb + hindlimb scores),"[3]; week 4 after injury, 1 mg/kg i.v. bolus at 1 and 3 hours after injury, n = 7",5
same,total functional score (forelimb + hindlimb scores),"[3]; week 5 after injury, 1 mg/kg i.v. bolus at 1 and 3 hours after injury, n = 7",6
same,total functional score (forelimb + hindlimb scores),"[3]; week 6 after injury, 1 mg/kg i.v. bolus at 1 and 3 hours after injury, n = 7",6
"NC(=O)[C@@H]1CCCN1C(=O)[C@H](Cc1c[nH]cn1)NC(=O)c1cc(=O)[nH]c(=O)[nH]1 [Compound of Invention, orotyl-L-histidyl-L-prolinamide]",neurologic and motoric function compared with saline,[3]; 0.2 mg/kg i.v. at 1 and 3 hours after injury,significantly improved
same,total functional score (forelimb + hindlimb scores),"[3]; week 1 after injury, 0.2 mg/kg i.v. bolus at 1 and 3 hours after injury, n = 9",6
same,total functional score (forelimb + hindlimb scores),"[3]; week 2 after injury, 0.2 mg/kg i.v. bolus at 1 and 3 hours after injury, n = 9",6
same,total functional score (forelimb + hindlimb scores),"[3]; week 3 after injury, 0.2 mg/kg i.v. bolus at 1 and 3 hours after injury, n = 9",6
same,total functional score (forelimb + hindlimb scores),"[3]; week 4 after injury, 0.2 mg/kg i.v. bolus at 1 and 3 hours after injury, n = 9",7
same,total functional score (forelimb + hindlimb scores),"[3]; week 5 after injury, 0.2 mg/kg i.v. bolus at 1 and 3 hours after injury, n = 9",8
same,total functional score (forelimb + hindlimb scores),"[3]; week 6 after injury, 0.2 mg/kg i.v. bolus at 1 and 3 hours after injury, n = 9",8
